“Also recorded” adds a separate entry of the source. Where a SMILES comes first, the peptide text is derived from it. [ ]: non-standard residue; d: D form. pY = N[C@@H](Cc1ccc(OP(=O)(O)O)cc1)C(=O)O

Data set [1] deals with human microvascular endothelial cells (HMEC). The data set is described as follows: In vitro angiogenesis assay (Matrigel tube formation). The data set is classed as cell-based. The settings on record: 500 μg/ml final concentration of peptide, images at 18 h. The protocol: Angiogenesis of human microvascular endothelial cells (HMEC) was induced in vitro using a Matrigel assay described by Al-Mahmood et al (2009, JPET, 2009; 58:933). This method is based on the differentiation of endothelial cells to form capillary structures on a Matrigel Matrix. Matrigel is prepared the Engelbreth-Holm-Swarm (EHS) mouse tumor, which represents a complex mixture of basement membrane proteins including type IV collagen, entactin, proteo-heparan sulfate and other growth factors.
Briefly, 250 μl of Matrigel were transferred to each well of a 24-well culture plate and incubated at 37° C. for 30 min to allow for the matrix solution to solidify. HMEC grown in complete growth medium EGM-2MV were harvested by trypsin, suspended in the same growth medium and 500 μl containing 70 000 cells were added on top of the solidified Matrigel in each well and in the presence or absence of peptide. Cells were maintained in a humidified atmosphere air containing 5% CO2 at 37° C. for 18-24 hrs. Endothelial tube formation was observed and photographed under an inverted light microscope.
The designed tyrosine phosphorylated and non phosphorylated peptides were tested for their influence onto the in vitro angiogenesis. The results of the in vitro angiogenesis assay were presented in FIG. 1, using HMEC and 500 μg/ml final concentration of each peptide.

Data set [2] has as its target T1, recruitment of the regulatory subunit (p85) of the enzyme PI-3K by IRS-1 (Homo sapiens, UniProt P27986).
T1 construct: endogenous in cells; host or cells: human microvascular endothelial cells (HMEC)
The data set is described as follows: Recruitment of p85 of PI-3K by IRS-1 (IRS-1 immunoprecipitation, anti-p85 immunoblot) in HMEC. The data set is classed as cell-based. To be noted: final concentration of peptide 500 μg/ml. The protocol: (§1) Human EC grown in EGM-2MV (80% confluence) were incubated with the peptides of the invention or vehicle for the indicated time, washed three times in cold PBS and directly lysed in 2 ml of ice-cold lysis buffer (10 mM Tris pH 7.5, 150 mM NaCl, 1 mM PMSF, 0.5 μg/ml leupeptin, 1 μg/ml pepstatin A, and 1 μg/ml aprotinin) by incubation for 30 min at 4° C. Cell lysate were spun at […] for 10 min, insoluble materials were discarded, and protein contents measured by Bradford assay of supernatants were adjusted. Cell lysate (1 ml) was precleared with 25 μl of protein G-plus agarose beads (Santa Cruz) for 30 min, and proteins were then immunoprecipitated by adding 2 μg of the indicated antibody and incubated for 1 hr. The immunocomplex was pulled down with protein G-plus agarose beads and the beads were washed three times with lysis buffer. The immunoprecipitates were separated by NuPAGE® 4-12% Bis-Tris gel electrophoresis under reducing conditions, transferred to PVDF membrane (Novex System, Invitrogen), and the membrane was blocked with 5% (w/v) non-fat milk in TBS containing 0.1% v/v Tween-20 for 1 hr.
As it is widely admitted that the tyrosine phosphorylation of IRS-1 leads to its association with the regulatory subunit (p85) of the enzyme PI-3K, and this event lead to important increases in the enzymatic activity of this later, we have investigated the influence of the tyrosine phosphorylated and non phosphorylated peptides onto the recruitment of the regulatory subunit (p85) of the enzyme PI-3K by IRS-1. For that, human microvascular endothelial cells (HMEC) were incubated with the tyrosine phosphorylated and non phosphorylated peptides (final concentration of peptide 500 μg/ml) followed by cells lysis and immuoprecipitation of the protein IRS-1. The immunoprecipitates were then resolved in SDS-PAGE, proteins were transferred to membranes, and the membranes were immunoblotted with an anti-p85 PI3K monoclonal antibody.
In general terms: In western blotting, separated proteins are transferred to a membrane and probed.

In another data set the test system is mTOR. The data set can be described thus: mTOR status in HMEC after incubation with peptides (anti-mTor antibody Ser2448). The data set is classed as cell-based, human. Here is the method:
as §1
The status of mTOR in the HMEC following incubation with peptides GS-0 and GS-1 was investigated.

For a further data set, the system named is NCI-H460 tumors. The data set can be described thus: NCI-H460 tumor xenograft in nude mice, tumor volume (Example 3). Type of data set: in vivo. The protocol: H460 cell line has cytology compatible with human Non-Small Cell Lung Cancer (NSCL). Cells were grown in MEM medium containing 10% FCS at 37° C., 5% CO2 humidified atmosphere. The absence of mycoplasms was confirmed by using the PCR Mycoplasma Detection kit (Takara). All experiments were reviewed by the Genopole's institutional animal care and use committee and were performed in accordance with institutional guidelines for animal care. Female BALB/c nu/nu mice (n=30) were used at 5-6 weeks of age. The animals were housed in laminar air-flow cabinets under pathogen-free conditions with a 12 h light/12 h dark schedule, and fed autoclaved standard chow and water ad libitum. The NCI-H460 human NSCL cell line was obtained from American Type Culture Collection (ATCC) were grown in RPMI medium 1640 supplemented with 1 μM sodium pyruvate. Tumor cells (10^7 cells in 200 μl of HBSS) were injected subcutaneously into the right flanks of mice. After engraftment, tumor volume was measured by Vernier callipers, and calculated as described in Balsam A et al. (Balsari A et al. (2004) Eur J Cancer 40: 1275-1281). At tumor volume about 150 mm^3, animals were randomized, and separated into five groups of five animals. Control mice (group 1) were intraperitoneally injected with vehicle (10% DMSO in buffer saline) every day. GS-0 was dissolved in vehicle and intraperitoneally injected (group 2) every day (12 injections). GS-2 was dissolved in vehicle and intraperitoneally injected (group 3) every day (12 injections). Tumor volume and body weight were measured every other day over the treatment period (12 days). GS-2 as well as the control peptide GS-0 were solubilized in DMSO and the resulting solutions were diluted 10 times with phosphate buffer saline (PBS) to obtain a concentration of 1 mg of peptide/ml of 10% DMSO in PBS. At this concentration, all peptides were soluble in 10% DMSO.

Data set [3] in a line: Body weight and toxicity of mice bearing NCI-H460 tumors (Example 3). Type of data set: in vivo. Here is the method:
All experiments were reviewed by the Genopole's institutional animal care and use committee and were performed in accordance with institutional guidelines for animal care. Female BALB/c nu/nu mice (n=30) were used at 5-6 weeks of age. The animals were housed in laminar air-flow cabinets under pathogen-free conditions with a 12 h light/12 h dark schedule, and fed autoclaved standard chow and water ad libitum. […] Tumor cells (10^7 cells in 200 μl of HBSS) were injected subcutaneously into the right flanks of mice. […] At tumor volume about 150 mm^3, animals were randomized, and separated into five groups of five animals. Control mice (group 1) were intraperitoneally injected with vehicle (10% DMSO in buffer saline) every day. GS-0 was dissolved in vehicle and intraperitoneally injected (group 2) every day (12 injections). GS-2 was dissolved in vehicle and intraperitoneally injected (group 3) every day (12 injections). Tumor volume and body weight were measured every other day over the treatment period (12 days).

The nature of data set [4]: Solubility of peptides in 10% DMSO in PBS. Type of data set: physicochemical. The settings on record: 1 mg of peptide/ml of 10% DMSO in PBS. The protocol: GS-1 as well as the control peptide GS-0 were solubilized in DMSO and the resulting solutions were diluted 10 times with phosphate buffer saline (PBS) to obtain a concentration of 1 mg of peptide/ml of 10% DMSO in PBS. At this concentration, all peptides were soluble in 10% DMSO.
GS-2 as well as the control peptide GS-0 were solubilized in DMSO and the resulting solutions were diluted 10 times with phosphate buffer saline (PBS) to obtain a concentration of 1 mg of peptide/ml of 10% DMSO in PBS. At this concentration, all peptides were soluble in 10% DMSO.

T1 sequence (P27986 whole entry): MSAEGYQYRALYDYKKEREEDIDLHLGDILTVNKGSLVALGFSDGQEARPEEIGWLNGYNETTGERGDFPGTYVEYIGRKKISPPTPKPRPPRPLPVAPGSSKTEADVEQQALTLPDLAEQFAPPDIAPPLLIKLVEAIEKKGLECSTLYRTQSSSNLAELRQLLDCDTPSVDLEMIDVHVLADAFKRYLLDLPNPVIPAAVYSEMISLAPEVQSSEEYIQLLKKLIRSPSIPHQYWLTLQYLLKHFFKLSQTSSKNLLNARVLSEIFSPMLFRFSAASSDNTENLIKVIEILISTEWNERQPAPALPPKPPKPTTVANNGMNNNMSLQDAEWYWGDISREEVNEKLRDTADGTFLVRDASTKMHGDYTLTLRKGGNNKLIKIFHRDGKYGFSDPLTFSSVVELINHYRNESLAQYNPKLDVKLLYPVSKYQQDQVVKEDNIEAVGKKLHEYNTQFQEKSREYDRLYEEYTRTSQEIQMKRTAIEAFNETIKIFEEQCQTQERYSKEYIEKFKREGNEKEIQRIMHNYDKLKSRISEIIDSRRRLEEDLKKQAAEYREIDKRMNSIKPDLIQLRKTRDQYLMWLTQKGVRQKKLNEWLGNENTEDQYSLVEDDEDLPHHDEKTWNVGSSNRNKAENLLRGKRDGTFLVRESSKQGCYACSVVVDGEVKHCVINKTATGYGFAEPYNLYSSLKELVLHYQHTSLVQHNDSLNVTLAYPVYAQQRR

Turning to `CSCC[C@H](NC(=O)[C@H](CC(N)=O)NC(=O)[C@H](CCSC)NC(=O)[C@H](Cc1ccc(OP(=O)(O)O)cc1)NC(=O)[C@H](CCC(=O)O)NC(C)=O)C(=O)N[C@@H](CC(=O)O)C(N)=O` [GS-2, EpYMNMD] (Ac-E[pY]MNMD-NH2), the “in vitro angiogenesis-inhibitory activity” value in data set [1] is recorded as “have in vitro angiogenesis-inhibitory activities”. Moreover, the “influence onto the recruitment of the regulatory subunit (p85) of PI3K by IRS-1” value in data set [2] is reported as “moderate inhibitory effects”. Also, the “amounts of mTOR in HMEC relative to vehicle” value in the data set on mTOR was “much less amounts of mTOR”. Further, the “influence on the in vivo growth of the tumor NCI-H460 (in words)” value in the data set with NCI-H460 tumors (8 mg/kg i.p. daily for 12 days) is “highly significant and potent influence; also recorded: statistically significant and potent anti-tumoral activity”. For the same compound, the “mean tumor volume at the end of treatment” value with NCI-H460 tumors (8 mg/kg i.p. daily for 12 days, n=5) worked out at 297.28 ± 142.67 mm^3. Moreover, in the data set on NCI-H460 tumors (Table 4, 8 mg/kg i.p. daily, day 1), the Mean tumor volume D1 stood at 124 mm³. The Mean tumor volume D3 in the data set with NCI-H460 tumors (Table 4, 8 mg/kg i.p. daily, day 3) amounted to 129 mm³. For the same compound, the Mean tumor volume D5 in the data set on NCI-H460 tumors (Table 4, 8 mg/kg i.p. daily, day 5) came to 163 mm³. Moreover, the Mean tumor volume D7 in the data set with NCI-H460 tumors (Table 4, 8 mg/kg i.p. daily, day 7) turned out to be 174 mm³. In the data set on NCI-H460 tumors (Table 4, 8 mg/kg i.p. daily, day 9), this compound showed a Mean tumor volume D9 of 254 mm³. This compound also gave a Mean tumor volume D11 in the data set with NCI-H460 tumors (Table 4, 8 mg/kg i.p. daily, day 11) of 297 mm³. The same compound returned a Mean tumor volume D13 in the data set on NCI-H460 tumors (Table 4, 8 mg/kg i.p. daily, day 13) of 297 mm³. Besides, the “toxicity and body weight loss during treatment” value in data set [3] (8 mg/kg intraperitoneally every day, 12 injections) was “No toxicity and no body weight loss”. The “Mean body weight D1” value in data set [3] (Table 3, 8 mg/kg i.p. daily, day 1, in g) is reported as 22.59. For the same compound, in data set [3] (Table 3, 8 mg/kg i.p. daily, day 3, in g), the “Mean body weight D3” value was found to be 22.32. The “Mean body weight D5” value in data set [3] (Table 3, 8 mg/kg i.p. daily, day 5, in g) is on record as 22.78. Moreover, the “Mean body weight D7” value in data set [3] (Table 3, 8 mg/kg i.p. daily, day 7, in g) worked out at 23.10. Besides, in data set [3] (Table 3, 8 mg/kg i.p. daily, day 9, in g), the “Mean body weight D9” value is listed as 23.00. Also, the “Mean body weight D11” value in data set [3] (Table 3, 8 mg/kg i.p. daily, day 11, in g) is 23.51. The “Mean body weight D13” value in data set [3] (Table 3, 8 mg/kg i.p. daily, day 13, in g) stood at 23.05. The “solubility in 10% DMSO” value in data set [4] is “soluble”.
